# What was measured:
# Rattus norvegicus = species: Rattus norvegicus; assay: Anti-inflammatory effect in rat granuloma assay, activity relative to hydrocortisone and hydrocortisone 21-acetate; assay type: functional
# Homo sapiens = species: Homo sapiens; assay: Potency relative to fluocinolone 16,17-acetonide in the human vasoconstictor test; assay type: functional
SMILES,Potency (Rattus norvegicus),Potency (Homo sapiens)
CC12C=CC(=O)C=C1[C@@H](Cl)CC1C3CC(O)[C@](O)(C(=O)CO)C3(C)CC(O)[C@@]12F (stereo partly drawn),400,–
C[C@H]1CC2C3CCC4=CC(=O)C=CC4(C)C3C(=O)CC2(C)[C@@]1(O)C(=O)CO (stereo partly drawn),26,–
CC(=O)OCC(=O)[C@@]1(O)CCC2C3C[C@H](Cl)C4=CC(=O)C=CC4(C)C3C(=O)CC21C (stereo partly drawn),4,–
C[C@@H]1CC2C3C[C@H](C)C4=CC(=O)C=CC4(C)[C@@]3(F)C(O)CC2(C)[C@@]1(O)C(=O)CO (stereo partly drawn),200,–
C[C@@H]1CC2C3CCC4=CC(=O)C=CC4(C)C3C(=O)CC2(C)[C@@]1(O)C(=O)CO (stereo partly drawn),13,–
CC(=O)OCC(=O)[C@@]1(O)CCC2C3CCC4=CC(=O)C=CC4(C)[C@@]3(F)C(O)CC21C (stereo partly drawn),14,–
CCCC(=O)O[C@]1(C(=O)CO)CC[C@H]2[C@@H]3CCC4=CC(=O)CC[C@]4(C)[C@H]3[C@@H](O)C[C@@]21C [HYDROCORTISONE BUTYRATE],1,50
CC(=O)OCC(=O)[C@@]1(O)CCC2C3CCC4=CC(=O)CCC4(C)[C@@]3(F)C(=O)CC21C (stereo partly drawn),10,–
CC1(C)O[C@@H]2CC3C4C[C@H](F)C5=CC(=O)CCC5(C)[C@@]4(F)C(O)CC3(C)[C@]2(C(=O)CO)O1 (stereo partly drawn),103,–
CC(=O)OCC(=O)C1CCC2C3CCC4=CC(=O)CCC4(C)C3C(O)CC12C (stereo not drawn),0.3,–
CC(=O)OCC(=O)[C@@]1(O)CCC2C3CCC4=CC(=O)[C@H](C)CC4(C)[C@@]3(F)C(O)CC21C (stereo partly drawn),9,–
CC(=O)OCC(=O)[C@@]1(O)[C@H](C)CC2C3C[C@H](F)C4=CC(=O)CCC4(C)[C@@]3(F)C(O)CC21C (stereo partly drawn),50,–
CC(=O)OCC(=O)C1CCC2C3CCC4=CC(=O)[C@H](C)CC4(C)C3C(O)=CC12C (stereo partly drawn),<0.01,–
C[C@@H]1C[C@H]2[C@@H]3CCC4=CC(=O)C=C[C@]4(C)[C@H]3[C@@H](O)C[C@]2(C)[C@@]1(O)C(=O)CO,11.3,–
C[C@@H]1CC2(C)C(=CC1=O)CCC1C2C(=O)CC2(C)C1CC[C@]2(O)C(=O)CO (stereo partly drawn),<0.07,–
CC12CCC(=O)C=C1[C@@H](F)CC1C3C[C@@H](O)[C@](O)(C(=O)CO)C3(C)CC(O)[C@@]12F (stereo partly drawn),15,–
C[C@@H]1C[C@H]2[C@@H]3CCC4=CC(=O)C=C[C@]4(C)[C@@]3(F)[C@@H](O)C[C@]2(C)[C@@]1(O)C(=O)CO [DEXAMETHASONE],200,1
C[C@H]1C[C@@H]2[C@H]([C@@H](O)C[C@@]3(C)[C@H]2CC[C@]3(O)C(=O)CO)[C@@]2(C)C=CC(=O)C=C12 (stereo in doubt; 68) [METHYLPREDNISOLONE],200,–
C[C@]12CCC(=O)C=C1CC[C@@H]1[C@@H]2C(=O)C[C@@]2(C)[C@H]1CC[C@]2(O)C(=O)CO [CORTISONE],0.4,–
C[C@H]1C[C@H]2[C@@H]3CCC4=CC(=O)C=C[C@]4(C)[C@@]3(F)[C@@H](O)C[C@]2(C)[C@@]1(O)C(=O)CO [BETAMETHASONE],35.8,0.8
CC(=O)OCC(=O)[C@@]12OC(C)(C)O[C@@H]1CC1C3C[C@H](F)C4=CC(=O)CCC4(C)C3C(O)CC12C (stereo partly drawn),4,–
CC12C=CC(=O)C=C1[C@@H](Cl)CC1C2C(O)CC2(C)C1CC[C@]2(O)C(=O)CO (stereo partly drawn),14,–

SMILES,Potency (Rattus norvegicus),Potency (Homo sapiens)
CC(=O)OCC(=O)[C@@]1(O)CCC2C3C[C@H](F)C4=CC(=O)C=CC4(C)C3C(O)CC21C (stereo partly drawn),20,–
CC(=O)OCC(=O)[C@@]12OC(C)(C)O[C@@H]1CC1C3C[C@H](F)C4=CC(=O)C=CC4(C)C3C(O)CC12C (stereo partly drawn),20,–
CC12CCC(=O)C=C1[C@@H](F)CC1C2C(O)CC2(C)C1C[C@@H](O)[C@]2(O)C(=O)CO (stereo partly drawn),5,–
CC(=O)OCC(=O)[C@@]1(O)CC[C@H]2[C@@H]3CCC4=CC(=O)CC[C@]4(C)[C@H]3C(=O)C[C@@]21C [CORTISONE ACETATE],0.3,–
CC(=O)OCC(=O)[C@@]1(O)CCC2C3C[C@H](F)C4=CC(=O)C=CC4(C)[C@@]3(F)C(O)CC21C (stereo partly drawn),200,–
CC(=O)OCC(=O)[C@@]1(O)[C@H](C)CC2C3C[C@H](F)C4=CC(=O)C=CC4(C)[C@@]3(F)C(O)CC21C (stereo partly drawn),120,–
C[C@H]1CC2C3CCC4=CC(=O)CCC4(C)C3C(=O)CC2(C)[C@@]1(O)C(=O)CO (stereo partly drawn),2,–
CC12C=CC(=O)C=C1CCC1C3CC[C@](O)(C(=O)CO)C3(C)CC(O)[C@@]12F (stereo partly drawn),17.7,–
CC(=O)OCC(=O)C1CCC2C3CCC4=CC(=O)[C@H](C)CC4(C)C3C(O)CC12C (stereo partly drawn),0.3,–
CC(=O)OCC(=O)[C@@]1(O)CCC2C3CCC4=CC(=O)[C@H](C)CC4(C)C3C(O)CC21C (stereo partly drawn),4.5,–
CC(=O)OCC(=O)[C@@]1(O)CCC2C3C[C@H](F)C4=CC(=O)C=CC4(C)C3C(=O)CC21C (stereo partly drawn),20,–
C[C@H]1C[C@H]2[C@@H]3CCC4=CC(=O)C=C[C@]4(C)[C@H]3[C@@H](O)C[C@]2(C)[C@@]1(O)C(=O)CO,23,–
CC(=O)OCC(=O)C1CCC2C3CCC4=CC(=O)[C@H](C)CC4(C)[C@@]3(F)C(O)CC12C (stereo partly drawn),2.4,–
C[C@@H]1CC2C3CCC4=CC(=O)C=CC4(C)C3[C@@H](O)CC2(C)C1C(=O)CO (stereo partly drawn),3,–
C[C@@H]1CC2C3CCC4=CC(=O)C=CC4(C)[C@@]3(F)C(O)=CC2(C)[C@@]1(O)C(=O)CO (stereo partly drawn),140,–
CC(=O)OCC(=O)[C@@]1(O)[C@H](C)CC2C3C[C@H](F)C4=CC(=O)CCC4(C)C3C(O)CC21C (stereo partly drawn),5,–
CC(=O)OCC(=O)[C@@]1(O)CCC2C3C[C@H](Cl)C4=CC(=O)CCC4(C)C3C(O)CC21C (stereo partly drawn),11,–
CC(=O)OCC(=O)[C@@]1(O)CCC2C3C[C@H](F)C4=CC(=O)CCC4(C)C3C(O)CC21C (stereo partly drawn),10,–
CC(=O)OCC(=O)[C@@]1(O)CCC2C3C[C@H](Cl)C4=CC(=O)CCC4(C)[C@@]3(F)C(=O)CC21C (stereo partly drawn),8,–
C[C@H]1CC2C3CCC4=CC(=O)CCC4(C)C3C(O)CC2(C)[C@@]1(O)C(=O)CO (stereo partly drawn),4,–
CC(=O)OCC(=O)[C@@]1(O)CCC2C3CCC4=CC(=O)C=CC4(C)[C@@]3(Cl)[C@@H](Cl)CC21C (stereo partly drawn),0.5,–
C[C@H]1CC2C3CCC4=CC(=O)CCC4(C)[C@@]3(F)C(O)CC2(C)[C@@]1(O)C(=O)CO (stereo partly drawn),23,–

SMILES,Potency (Rattus norvegicus),Potency (Homo sapiens)
C[C@@H]1CC2C3CCC4=CC(=O)CCC4(C)[C@@]3(F)C(O)CC2(C)[C@@]1(O)C(=O)CO (stereo partly drawn),36,–
CC12CCC(=O)C=C1[C@@H](Cl)CC1C3CC(O)[C@](O)(C(=O)CO)C3(C)CC(O)[C@@]12F (stereo partly drawn),50,–
CC(=O)OCC(=O)[C@@]1(O)CCC2C3CCC4=CC(=O)CCC4(C)[C@@]3(Cl)C(O)CC21C (stereo partly drawn),3.5,–
CC(=O)OCC(=O)[C@@]1(O)CCC2C3C[C@H](F)C4=CC(=O)CCC4(C)C3C(=O)CC21C (stereo partly drawn),10,–
CC(=O)OCC(=O)[C@@]1(O)CCC2C3C[C@H](Cl)C4=CC(=O)CCC4(C)[C@@]3(F)C(O)CC21C (stereo partly drawn),11,–
CC(=O)OCC(=O)[C@@]1(O)CCC2C3C[C@H](F)C4=CC(=O)CCC4(C)[C@@]3(F)C(O)CC21C (stereo partly drawn),50,–
C[C@@H]1CC2C3CCC4=CC(=O)C=CC4(C)[C@@]3(Cl)C(O)CC2(C)[C@@]1(O)C(=O)CO (stereo partly drawn),60,–
CC(=O)OCC(=O)[C@@]1(O)CCC2C3C[C@H](Cl)C4=CC(=O)C=CC4(C)[C@@]3(F)C(O)CC21C (stereo partly drawn),27,–
CC(=O)OCC(=O)[C@@]1(O)CCC2C3C[C@H](Cl)C4=CC(=O)CCC4(C)C3C(=O)CC21C (stereo partly drawn),1,–
CCC(=O)O[C@]1(C(=O)CO)[C@@H](C)C[C@H]2[C@@H]3CCC4=CC(=O)C=C[C@]4(C)[C@@]3(F)[C@@H](O)C[C@@]21C,–,190
CC(C)C(=O)OCC(=O)[C@@]1(O)C(C)CC2C3CCC4=CC(=O)C=CC4(C)[C@@]3(F)C(O)CC21C (stereo partly drawn),–,90
CCC(=O)O[C@]1(C(C)=O)C(C)CC2C3CCC4=CC(=O)C=CC4(C)[C@@]3(F)C(O)CC21C (stereo partly drawn),–,1170
CCC(=O)O[C@]1(C(=O)CO)[C@@H](C)C[C@H]2[C@@H]3CCC4=CC(=O)C=C[C@]4(C)[C@@]3(Cl)[C@@H](O)C[C@@]21C [BECLOMETHASONE 17-MONOPROPIONATE],–,360
CC(=O)OCC(=O)C1CCC2C3CCC4=CC(=O)CCC4(C)[C@@]3(F)C(O)CC12C (stereo partly drawn),2.7,–
CC(=O)OCC(=O)C1CCC2C3CCC4=CC(=O)CCC4(C)C3C(O)=CC12C (stereo not drawn),0.2,–
CC(=O)OCC(=O)[C@@]1(O)[C@@H](C)C[C@H]2[C@@H]3CCC4=CC(=O)C=C[C@]4(C)[C@@]3(F)[C@@H](O)C[C@@]21C [BETAMETHASONE ACETATE],–,18
CC(=O)OCC(=O)[C@@]1(OC(C)=O)CCC2C3C[C@H](F)C4=CC(=O)C=CC4(C)[C@@]3(F)C(O)CC21C (stereo partly drawn),–,360
C[C@@H]1CC2C3CCC4=CC(=O)CCC4(C)C3C(O)CC2(C)[C@@]1(O)C(=O)CO (stereo partly drawn),1.4,–
CCOC(=O)[C@@]1(OC(=O)CC)[C@@H](C)CC2C3CCC4=CC(=O)C=CC4(C)[C@@]3(F)[C@@H](O)CC21C (stereo partly drawn),–,75
CCC(=O)O[C@]1(C(=O)CO)CCC2C3C[C@H](F)C4=CC(=O)C=CC4(C)[C@@]3(F)C(O)CC21C (stereo partly drawn),–,<360
CC(=O)OCC(=O)[C@@]1(O)CC[C@H]2[C@@H]3CCC4=CC(=O)C=C[C@]4(C)[C@H]3C(=O)C[C@@]21C,1,–

# — ChEMBL document CHEMBL1122453, “Structure-activity relationships in the antiinflammatory steroids: a pattern-recognition approach” (1983)
